Target: BRAF V600E (Homo sapiens, UniProt P15056, V600E)
Experiment: HiBiT cellular BRAF^V600E degradation assay
Format: cell-based
Conditions: A375.10 cells, 24 h; for DC50: concentration at which 50% of total cellular BRAF^V600E is degraded; for Emax: residual protein remaining in the cell, read-out: HiBit 24 h Emax

Sequence of BRAF V600E (P15056 whole entry V600E): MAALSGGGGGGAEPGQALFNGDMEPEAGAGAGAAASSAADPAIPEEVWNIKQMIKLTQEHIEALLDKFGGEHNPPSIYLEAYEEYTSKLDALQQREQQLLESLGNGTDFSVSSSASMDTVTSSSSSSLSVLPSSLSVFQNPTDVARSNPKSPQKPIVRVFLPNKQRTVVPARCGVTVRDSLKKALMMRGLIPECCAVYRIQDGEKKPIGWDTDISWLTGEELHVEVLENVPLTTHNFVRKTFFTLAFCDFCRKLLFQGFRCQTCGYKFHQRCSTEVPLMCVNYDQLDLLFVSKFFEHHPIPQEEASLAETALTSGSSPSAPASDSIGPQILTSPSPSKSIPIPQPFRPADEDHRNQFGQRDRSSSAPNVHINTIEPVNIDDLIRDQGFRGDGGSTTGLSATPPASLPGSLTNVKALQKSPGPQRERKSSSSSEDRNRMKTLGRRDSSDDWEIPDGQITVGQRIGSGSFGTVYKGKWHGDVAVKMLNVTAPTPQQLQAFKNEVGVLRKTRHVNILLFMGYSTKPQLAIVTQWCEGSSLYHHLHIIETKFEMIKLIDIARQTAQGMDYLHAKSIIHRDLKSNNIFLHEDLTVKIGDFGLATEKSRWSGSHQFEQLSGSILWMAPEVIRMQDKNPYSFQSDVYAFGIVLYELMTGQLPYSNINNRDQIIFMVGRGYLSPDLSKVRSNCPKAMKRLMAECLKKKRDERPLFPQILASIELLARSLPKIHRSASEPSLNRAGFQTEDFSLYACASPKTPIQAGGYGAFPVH

| Compound | DC50 [µM] | Emax [%] |
| --- | --- | --- |
| CCN(C)S(=O)(=O)Nc1ccc(F)c(C(=O)c2ccc3ncn(-c4cnc(N5CCN(C(=O)CN6CCC(c7ccc(N[C@@H]8CCC(=O)NC8=O)cc7F)CC6)CC5)nc4)c(=O)c3c2)c1F [Example 141, 3-[2-[4-[2-[4-[4-[[(3R)-2,6-dioxopiperidin-3-yl]amino]-2-fluorophenyl]piperidin-1-yl]acetyl]piperazin-1-yl]pyrimidin-5-yl]-6-[3-[[ethyl(methyl)sulfamoyl]amino]-2,6-difluorobenzoyl]-4-oxoquinazoline] | 0.055 | 26.3 |
| CCN(C)S(=O)(=O)Nc1ccc(F)c(Oc2ccc3ncn(CCC4CCN(C(=O)CN5CCC(c6ccc7c(C8CCC(=O)NC8=O)nn(C)c7c6)CC5)CC4)c(=O)c3c2)c1C#N (stereo not drawn) [Example 144, 6-[2-cyano-3-[[ethyl(methyl)sulfamoyl]amino]-6-fluorophenoxy]-3-[2-[1-[2-[4-[3-(2,6-dioxopiperidin-3-yl)-1-methylindazol-6-yl]piperidin-1-yl]acetyl]piperidin-4-yl]ethyl]-4-oxoquinazoline] | 0.0284 | 16.7 |
| CCN(C)S(=O)(=O)Nc1ccc(F)c(Oc2ccc3ncn(CCCC4CCN(C(=O)CN5CCC(c6ccc7c(C8CCC(=O)NC8=O)nn(C)c7c6)CC5)CC4)c(=O)c3c2)c1C#N (stereo not drawn) [Example 145, 6-[2-cyano-3-[[ethyl(methyl)sulfamoyl]amino]-6-fluorophenoxy]-3-[3-[1-[2-[4-[3-(2,6-dioxopiperidin-3-yl)-1-methylindazol-6-yl]piperidin-1-yl]acetyl]piperidin-4-yl]propyl]-4-oxoquinazoline] | 0.0106 | 15 |
| CCN(C)S(=O)(=O)Nc1ccc(F)c(Oc2ccc3ncn(-c4cnn(C5CCN(C(=O)CN6CCC(c7ccc8c(C9CCC(=O)NC9=O)nn(C)c8c7)CC6)CC5)c4)c(=O)c3c2)c1C#N (stereo not drawn) [Example 146, 6-[2-cyano-3-[[ethyl(methyl)sulfamoyl]amino]-6-fluorophenoxy]-3-[1-[1-[2-[4-[3-(2,6-dioxopiperidin-3-yl)-1-methylindazol-6-yl]piperidin-1-yl]acetyl]piperidin-4-yl]pyrazol-4-yl]-4-oxoquinazoline] | 0.0222 | 16 |
| CCN(C)S(=O)(=O)Nc1ccc(F)c(Oc2ccc3ncn(C4CC5(CCN(C(=O)CN6CCC(c7ccc8c(N9CCC(=O)NC9=O)nn(C)c8c7)CC6)CC5)C4)c(=O)c3c2)c1C#N [Example 147, 6-[2-cyano-3-[[ethyl(methyl)sulfamoyl]amino]-6-fluorophenoxy]-3-[7-[2-[4-[3-(2,4-dioxo-1,3-diazinan-1-yl)-1-methylindazol-6-yl]piperidin-1-yl]acetyl]-7-azaspiro[3.5]nonan-2-yl]-4-oxoquinazoline] | 0.0269 | 9.49 |
| CCN(C)S(=O)(=O)Nc1ccc(F)c(Oc2ccc3ncn(C4COC5(CCN(C(=O)CN6CCC(c7ccc8c(N9CCC(=O)NC9=O)nn(C)c8c7)CC6)CC5)C4)c(=O)c3c2)c1C#N (stereo not drawn) [Example 148, 3-[6-[2-cyano-3-[[ethyl(methyl)sulfamoyl]amino]-6-fluorophenoxy]-4-oxoquinazolin-3-yl]-8-[2-[4-[3-(2,4-dioxo-1,3-diazinan-1-yl)-1-methylindazol-6-yl]piperidin-1-yl]acetyl]-1-oxa-8-azaspiro[4.5]decane] | 0.0184 | 8.7 |
| CCN(C)S(=O)(=O)Nc1ccc(F)c(Oc2ccc3ncn(C4CC5(CCN(C(=O)CN6CCC(c7ccc8c(C9CCC(=O)NC9=O)nn(C)c8c7)CC6)CC5)C4)c(=O)c3c2)c1C#N (stereo not drawn) [Example 149, 6-[2-cyano-3-[[ethyl(methyl)sulfamoyl]amino]-6-fluorophenoxy]-3-[7-[2-[4-[3-(2,6-dioxopiperidin-3-yl)-1-methylindazol-6-yl]piperidin-1-yl]acetyl]-7-azaspiro[3.5]nonan-2-yl]-4-oxoquinazoline] | 0.0107 | 11.5 |
| CCN(C)S(=O)(=O)Nc1ccc(F)c(Oc2ccc3ncn([C@H]4COC5(CCN(C(=O)CC6CCN(c7ccc8c(C9CCC(=O)NC9=O)nn(C)c8c7)CC6)CC5)C4)c(=O)c3c2)c1C#N (stereo partly drawn) [Example 151, (3R)-3-[6-[2-cyano-3-[[ethyl(methyl)sulfamoyl]amino]-6-fluorophenoxy]-4-oxoquinazolin-3-yl]-8-[2-[1-[3-(2,6-dioxopiperidin-3-yl)-1-methylindazol-6-yl]piperidin-4-yl]acetyl]-1-oxa-8-azaspiro[4.5]decane] | 0.0187 | 24.6 |
| CCN(C)S(=O)(=O)Nc1ccc(F)c(Oc2ccc3ncn([C@H]4COC5(CCN(C(=O)CC6(O)CCN(c7ccc8c(C9CCC(=O)NC9=O)nn(C)c8c7)CC6)CC5)C4)c(=O)c3c2)c1C#N (stereo partly drawn) [Example 152, (3R)-3-[6-[2-cyano-3-[[ethyl(methyl)sulfamoyl]amino]-6-fluorophenoxy]-4-oxoquinazolin-3-yl]-8-[2-[1-[3-(2,6-dioxopiperidin-3-yl)-1-methylindazol-6-yl]-4-hydroxypiperidin-4-yl]acetyl]-1-oxa-8-azaspiro[4.5]decane] | 0.0272 | 25.2 |
| CCN(C)S(=O)(=O)Nc1ccc(F)c(Oc2ccc3ncn([C@H]4CCC5(CCN(C(=O)CN6CCC(c7ccc8c(N9CCC(=O)NC9=O)nn(C)c8c7)CC6)CC5)C4)c(=O)c3c2)c1C#N [Example 154, 6-[2-cyano-3-[[ethyl(methyl)sulfamoyl]amino]-6-fluorophenoxy]-3-[(3S)-8-[2-[4-[3-(2,4-dioxo-1,3-diazinan-1-yl)-1-methylindazol-6-yl]piperidin-1-yl]acetyl]-8-azaspiro[4.5]decan-3-yl]-4-oxoquinazoline] | 0.0246 | 11.1 |
| CCN(C)S(=O)(=O)Nc1ccc(F)c(Oc2ccc3ncn(C4CCC5(CC4)CCN(C(=O)CN4CCC(c6ccc7c(N8CCC(=O)NC8=O)nn(C)c7c6)CC4)CC5)c(=O)c3c2)c1C#N [Example 155, 9-[6-[2-cyano-3-[[ethyl(methyl)sulfamoyl]amino]-6-fluorophenoxy]-4-oxoquinazolin-3-yl]-3-[2-[4-[3-(2,4-dioxo-1,3-diazinan-1-yl)-1-methylindazol-6-yl]piperidin-1-yl]acetyl]-3-azaspiro[5.5]undecane] | 0.0232 | 9.75 |
| CCN(C)S(=O)(=O)Nc1ccc(F)c(Oc2ccc3ncn(C4CCC5(CC4)CCN(C(=O)CN4CCC(c6ccc7c(C8CCC(=O)NC8=O)nn(C)c7c6)CC4)CC5)c(=O)c3c2)c1C#N (stereo not drawn) [Example 156, 9-[6-[2-cyano-3-[[ethyl(methyl)sulfamoyl]amino]-6-fluorophenoxy]-4-oxoquinazolin-3-yl]-3-[2-[4-[3-(2,6-dioxopiperidin-3-yl)-1-methylindazol-6-yl]piperidin-1-yl]acetyl]-3-azaspiro[5.5]undecane] | 0.0266 | 21 |
| CCN(C)S(=O)(=O)Nc1ccc(F)c(Oc2ccc3ncn(C4CCC5(CC4)CCN(C(=O)CC4(O)CCN(c6cc7c(cc6F)c(N6CCC(=O)NC6=O)nn7C)CC4)CC5)c(=O)c3c2)c1C#N [Example 158, 9-[6-[2-cyano-3-[[ethyl(methyl)sulfamoyl]amino]-6-fluorophenoxy]-4-oxoquinazolin-3-yl]-3-[2-[1-[3-(2,4-dioxo-1,3-diazinan-1-yl)-5-fluoro-1-methylindazol-6-yl]-4-hydroxypiperidin-4-yl]acetyl]-3-azaspiro[5.5]undecane] | 0.025 | 30 |
| CCN(C)S(=O)(=O)Nc1ccc(F)c(Oc2ccc3ncn([C@H]4CCC5(CCN(C(=O)CC6(O)CCN(c7cc8c(cc7F)c(N7CCC(=O)NC7=O)nn8C)CC6)CC5)C4)c(=O)c3c2)c1C#N [Example 159, 6-[2-cyano-3-[[ethyl(methyl)sulfamoyl]amino]-6-fluorophenoxy]-3-[(3S)-8-[2-[1-[3-(2,4-dioxo-1,3-diazinan-1-yl)-5-fluoro-1-methylindazol-6-yl]-4-hydroxypiperidin-4-yl]acetyl]-8-azaspiro [4.5]decan-3-yl]-4-oxoquinazoline] | 0.00698 | 18.8 |
| CCN(C)S(=O)(=O)Nc1ccc(F)c(Oc2ccc3ncn([C@H]4CCC5(CCN(C(=O)CN6CCC(c7ccc8c(C9CCC(=O)NC9=O)nn(C)c8c7)C(F)(F)C6)CC5)C4)c(=O)c3c2)c1C#N (stereo partly drawn) [Example 160, 6-[2-cyano-3-[[ethyl(methyl)sulfamoyl]amino]-6-fluorophenoxy]-3-[(3S)-8-[2-[4-[3-(2,6-dioxopiperidin-3-yl)-1-methylindazol-6-yl]-3,3-difluoropiperidin-1-yl]acetyl]-8-azaspiro[4.5]decan-3-yl]-4-oxoquinazoline] | 0.0222 | 23.9 |
| CCN(C)S(=O)(=O)Nc1ccc(F)c(Oc2ccc3ncn([C@H]4CCC5(CCN(C(=O)CN6CCN(c7cc8c(cc7F)c(N7CCC(=O)NC7=O)nn8C)CC6)CC5)C4)c(=O)c3c2)c1C#N [Example 162, 6-[2-cyano-3-[[ethyl(methyl)sulfamoyl]amino]-6-fluorophenoxy]-3-[(3S)-8-[2-[4-[3-(2,4-dioxo-1,3-diazinan-1-yl)-5-fluoro-1-methylindazol-6-yl]piperazin-1-yl]acetyl]-8-azaspiro [4.5]decan-3-yl]-4-oxoquinazoline] | 0.0173 | 14.5 |
| CCN(C)S(=O)(=O)Nc1ccc(F)c(Oc2ccc3ncn(C4CCC5(CC4)CCN(C(=O)CN4CCN(c6cc7c(cc6F)c(N6CCC(=O)NC6=O)nn7C)CC4)CC5)c(=O)c3c2)c1C#N [Example 163, 9-[6-[2-cyano-3-[[ethyl(methyl)sulfamoyl]amino]-6-fluorophenoxy]-4-oxoquinazolin-3-yl]-3-[2-[4-[3-(2,4-dioxo-1,3-diazinan-1-yl)-5-fluoro-1-methylindazol-6-yl]piperazin-1-yl]acetyl]-3-azaspiro[5.5]undecane] | 0.0276 | 16.2 |
| CCN(C)S(=O)(=O)Nc1ccc(F)c(Oc2ccc3ncn([C@H]4COC5(CCN(C(=O)CN6CCN(c7cc8c(cc7F)c(N7CCC(=O)NC7=O)nn8C)CC6)CC5)C4)c(=O)c3c2)c1C#N [Example 164, (3R)-3-[6-[2-cyano-3-[[ethyl(methyl)sulfamoyl]amino]-6-fluorophenoxy]-4-oxoquinazolin-3-yl]-8-[2-[4-[3-(2,4-dioxo-1,3-diazinan-1-yl)-5-fluoro-1-methylindazol-6-yl]piperazin-1-yl]acetyl]-1-oxa-8-azaspiro[4.5]decane] | 0.0266 | 15.6 |

From US12486253B2, “Therapeutics for the degradation of mutant BRAF” (C4 THERAPEUTICS, INC., priority 2021, dated 2025)
